From patent publication US9873702B2, “Heterocyclic compounds as biogenic amine transport modulators” (Southern Research Institute, priority 2014, dated 2018)
Read-outs that look alike come from different tables or passages of the source.

How the values were obtained:
[1] = target: T1, serotonin transporter (SERT) (Rattus norvegicus, UniProt P31652); experiment: Serotonin reuptake ([^3H]serotonin uptake) inhibition in rat brain synaptosomes; format: biochemical
T1 construct: Freshly removed whole brain minus cerebellum and caudate was homogenized; from tissue; host or cells: rat whole brain minus cerebellum and caudate, synaptosomes

[2] = target: T2, dopamine transporter (DAT) (Rattus norvegicus, UniProt P23977); experiment: Dopamine reuptake ([^3H]dopamine uptake) inhibition in rat brain synaptosomes
DAT = target: T3, DAT (Rattus norvegicus, UniProt P23977); experiment: Dopamine transporter binding, inhibition of [^3H]WIN35428 binding in rat caudate membranes; settings: for EC50: read-out: WIN Binding EC50 (μM ± SD)
T3 construct: from tissue; host or cells: rat caudate membranes
Method: The ability of test drugs to inhibit [^3H]WIN35428 binding to DAT in rat caudate membranes was assessed as follows. For each experiment, caudates from four rat brains were suspended in 15 mL ice cold assay buffer (50 mM sodium phosphate pH 7.4) and homogenized using a polytron (setting 6, 20 sec). The homogenate was centrifuged at 30,000×g for 10 minutes at 4° C. The pellet was resuspended with vigorous vortexing in 15 mL fresh ice cold assay buffer, and the centrifugation was repeated. The pellet was resuspended in 15 mL fresh ice cold assay buffer with vigorous vortexing followed by six strokes with a glass-on-glass hand-held homogenizer and was diluted to a final volume of 235 mL in ice cold assay buffer. [^3H]WIN35428 was diluted to 10 nM in assay buffer that contained 25 μg/mL chymostatin, 25 μg/mL leupeptin, 0.1 mM EDTA, and 0.1 mM EGTA. Each assay tube contained 0.75 mL membrane preparation, 0.15 mL test drug diluted in assay buffer containing 1 mg/mL bovine serum albumin, and 0.1 mL [^3H]WIN35428 preparation (final concentration of 1 nM). Assays were initiated by the addition of membranes and were terminated after 2 hours at 25° C. by rapid vacuum filtration. Retained tritium was measured as described. The data from three experiments were pooled and fit to a dose-response curve equation (using Kaleidagraph), to yield an Emax and EC50 value.

[3] = target: T2, dopamine transporter (DAT); experiment: Dopamine transporter-mediated [^3H]MPP^+ release, shift of D-amphetamine-induced release, rat caudate synaptosomes; format: biochemical; parameters: Freshly removed caudate was homogenized in 10% ice-cold sucrose; from tissue; host or cells: rat caudate synaptosomes; settings: for Apparent Kc: [3H]MPP+ release, Apparent Kc = [Blocker]/((EC50-2/EC50-1) − 1), negative when shifted EC50 is less than control; for Kb: apparent Ke from shift of D-amphetamine-induced [^3H]MPP^+ release, compound at the concentration of column 1, read-out: Ke App
[4] = target: norepinephrine transporter (NET) (Rattus norvegicus, UniProt Q9WTR4); experiment: Norepinephrine reuptake ([^3H]norepinephrine uptake) inhibition in rat brain synaptosomes; settings: for NE Uptake Emax (% I ± SD): maximal inhibition from dose-response fit
Method: Freshly removed whole brain minus cerebellum and caudate was homogenized in 10% ice-cold sucrose with 12 strokes of a hand-held Potter-Elvehjem homogenizer followed by centrifugation at 1000×g for 10 minutes. The supernatants were saved on ice and used immediately. Transporter activity at NET was assessed using 10 nM [^3H]norepinephrine. […] Uptake inhibition assays were conducted at 37° C. and were initiated by adding 100 μL of tissue to 900 μL assay buffer containing test drug and [^3H]norepinephrine. Test drugs were diluted in assay buffer containing 1 mg/mL bovine serum albumin. Nonspecific uptake was measured by incubating in the presence of 10 μM indatraline. The reactions were stopped after 10 minutes by rapid vacuum filtration with a cell harvester (BRANDEL) over GF/B filters (Whatman) presoaked in wash buffer maintained at 25° C. (10 mM Tris-HCl, pH 7.4/150 mM NaCl). Filters were rinsed with 6 mL wash buffer and retained tritium was quantified by a MicroBeta liquid scintillation counter (PerkinElmer) after overnight extraction in 0.6 mL of liquid scintillation cocktail (Cytoscint, ICN). The data from three experiments were pooled and fit to a dose-response curve equation (using Kaleidagraph), to yield an Emax and EC50 value.
The data from three experiments were pooled and fit to a dose-response curve equation (using KaleidaGraph; Synergy Software, Reading, Pa.) to yield an Emax and IC50 value.

[5] = mean ± S.D., n = 3, read-out: SERT Uptake IC50
[6] = DAT Uptake IC50, [3H]DA uptake inhibition, mean ± S.D., n = 3
[7] = IC50 for DAT Uptake Inhibition, rounded value as listed in Table 10
[8] = read-out: Emax for DAT Uptake Inhibition
[9] = 2 h, read-out: DAT Binding εmax
[10] = Emax of D-amphetamine for [^3H]MPP^+ release in presence of 50 nM test compound
[11] = read-out: NET Uptake IC50, mean ± S.D., n = 3
[12] = mean ± S.D., n = 3, read-out: SERT Uptake Emax
[13] = rat brain synaptosomes, 10 nM [^3H]norepinephrine
[14] = read-out: NE Uptake EC50 (nM ± SD), rat brain synaptosomes, 10 nM [^3H]norepinephrine, 10 min, 37° C.
[15] = rat brain synaptosomes, 5 nM [^3H]serotonin, 30 min, 25° C., read-out: 5HT Uptake EC50 (nM ± SD)
[16] = rat brain synaptosomes, 5 nM [^3H]serotonin, maximal inhibition from dose-response fit, read-out: 5HT Uptake Emax (% I ± SD)
[17] = DA Uptake EC50 (nM ± SD), rat caudate synaptosomes, 5 nM [^3H]dopamine, 15 min, 25° C., three experiments pooled
[18] = read-out: DA Uptake Emax (% I ± SD)
[19] = read-out: WIN Binding Emax (% I ± SD)
[20] = Emax of D-amphetamine for [^3H]MPP^+ release in presence of 5000 nM test compound
[21] = Emax of D-amphetamine for [^3H]MPP^+ release in presence of 250 nM test compound

T2 sequence (P23977 whole entry): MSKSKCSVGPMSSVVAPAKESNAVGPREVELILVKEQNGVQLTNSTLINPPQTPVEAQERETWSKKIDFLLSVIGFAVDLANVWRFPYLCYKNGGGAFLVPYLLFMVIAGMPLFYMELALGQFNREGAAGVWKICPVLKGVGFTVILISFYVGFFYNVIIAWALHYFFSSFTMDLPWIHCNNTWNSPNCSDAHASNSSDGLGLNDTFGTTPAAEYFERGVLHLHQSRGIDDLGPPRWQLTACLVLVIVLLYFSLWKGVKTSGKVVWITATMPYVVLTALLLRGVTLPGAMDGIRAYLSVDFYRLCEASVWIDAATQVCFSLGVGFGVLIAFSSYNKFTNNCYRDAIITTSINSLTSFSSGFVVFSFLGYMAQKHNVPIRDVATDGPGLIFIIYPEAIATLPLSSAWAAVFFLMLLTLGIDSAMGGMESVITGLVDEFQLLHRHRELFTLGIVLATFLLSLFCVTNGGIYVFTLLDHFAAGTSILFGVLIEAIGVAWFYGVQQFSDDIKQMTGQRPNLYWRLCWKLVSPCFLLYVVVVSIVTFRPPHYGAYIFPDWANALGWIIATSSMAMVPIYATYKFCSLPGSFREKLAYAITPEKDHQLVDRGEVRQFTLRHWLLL
T3 sequence (P23977 whole entry): as above
T1 sequence (P31652 whole entry): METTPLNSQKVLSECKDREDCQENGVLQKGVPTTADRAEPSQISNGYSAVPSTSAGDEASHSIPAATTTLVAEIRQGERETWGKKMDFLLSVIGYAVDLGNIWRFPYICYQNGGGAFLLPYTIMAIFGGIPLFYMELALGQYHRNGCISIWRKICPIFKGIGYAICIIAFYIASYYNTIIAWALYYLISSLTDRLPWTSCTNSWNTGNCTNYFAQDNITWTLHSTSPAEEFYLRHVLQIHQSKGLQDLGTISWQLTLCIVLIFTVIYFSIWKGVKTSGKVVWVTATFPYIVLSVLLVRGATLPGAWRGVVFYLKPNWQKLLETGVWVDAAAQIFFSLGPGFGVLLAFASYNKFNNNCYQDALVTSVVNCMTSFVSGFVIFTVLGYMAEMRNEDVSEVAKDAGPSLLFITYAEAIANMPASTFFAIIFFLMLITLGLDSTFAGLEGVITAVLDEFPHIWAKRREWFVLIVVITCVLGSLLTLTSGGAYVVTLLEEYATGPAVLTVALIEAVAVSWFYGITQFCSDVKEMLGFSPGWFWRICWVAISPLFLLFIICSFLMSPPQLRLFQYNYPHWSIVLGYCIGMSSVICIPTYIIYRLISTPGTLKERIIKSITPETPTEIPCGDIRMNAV

SMILES | IC50 [1, 5] [nM] | IC50 [2, 6] [nM] | IC50 [2, 7] [nM] | Emax ([2]; read-out: DAT Uptake Emax) [%] | Emax [2, 8] [%] | Emax (DAT; [9]) [%] | Apparent Kc [3] [nM] | Kb [3] [nM] | NET Uptake Emax ([4]; mean ± S.D., n = 3) [%] | IC50 [4, 11] [nM] | Emax [1, 12] [%] | NE Uptake Emax (% I ± SD) [4, 13] [% I] | IC50 [4, 14] [nM] | EC50 (DAT) [µM] | further results
Cc1cc2nccn2cc1-c1nc(NCC(c2ccccc2)c2ccncc2)c2ccccc2n1 (centres unmarked) [compound 151, 2-(7-Methylimidazo[1,2-A]Pyridin-6-yl)-N-(2-Phenyl-2-(Pyridin-4-yl)Ethyl)Quinazolin-4-Amine] | 2.4 ± 0.4 | 1.9 ± 0.3 | 2 | 72 ± 2 | 72 | 92 ± 4 | 400 | 400 | 61 ± 2 | 17 ± 4 |  |  |  |  | D-Amphetamine Emax (% ± SD) [3, 10]: 103 ± 3%
Cc1cc2nccn2cc1-c1nc(NCC(c2ccccc2)c2ccc[nH]2)c2ccccc2n1 (centres unmarked) [compound 140, 2-(7-Methylimidazo[1,2-A]Pyridin-6-yl)-N-(2-Phenyl-2-(1H-Pyrrol-2-yl)Ethyl)Quinazolin-4-Amine] | 3.1 ± 0.7 | 1.2 ± 0.1 | 1 | 69 ± 1 | 69 | 91 ± 7 | 55 |  | 70 ± 4 | 11 ± 4 | 54 ± 2 | 70 ± 4 | 11 ± 4 |  | D-Amphetamine Emax (% ± SD) ([3]; Emax of D-amphetamine for [^3H]MPP^+ release in presence of 25 nM test compound): 105 ± 3%
c1ccc(C(CNc2nc(-c3cnc4nccn4c3)nc3ccccc23)c2ccccc2)cc1 [compound 89, N-(2,2-Diphenylethyl)-2-(Imidazo[1,2-A]Pyrimidin-6-yl)Quinazolin-4-Amine] | 4.7 ± 0.6 | 2.1 ± 0.3 | 2 | 68 ± 1 | 68 | 18 ± 4 | -1070 |  | 69 ± 2 | 63 ± 9 | 51 ± 1 | 69 ± 2 | 63 ± 9 |  | D-Amphetamine Emax (% ± SD) [3, 10]: 102 ± 2%
c1ccc(C(CNc2nc(-c3cnc4nccn4c3)nc3ccccc23)C2CCCCC2)cc1 (centres unmarked) [compound 102, N-(2-Cyclohexyl-2-Phenylethyl)-2-(Imidazo[1,2-A]Pyrimidin-6-yl)Quinazolin-4-Amine] | 23 ± 3 | 6 ± 0.7 | 6 | 70 ± 1 | 70 | 43 ± 4 | 1600 | 1600 | 70 ± 2 | 95 ± 12 | 54 ± 1 | 70 ± 2 | 95 ± 12 |  | D-Amphetamine Emax (% ± SD) ([3]; Emax of D-amphetamine for [^3H]MPP^+ release in presence of 150 nM test compound): 104 ± 4%
c1ccc(C(Nc2nc(-c3ccc4[nH]ccc4c3)nc3ccccc23)c2ccccc2)cc1 [compound 13, N-Benzhydryl-2-(1H-indol-5-yl)quinazolin-4-amine] |  |  |  |  |  |  |  | 25800 |  |  |  | 62 ± 5 | 5850 ± 1750 | 2.7 ± 0.3 | IC50 [1, 15]: 6380 ± 2640 nM; Emax [1, 16]: 56 ± 9%; IC50 [2, 17]: 212 ± 49 nM; Emax [2, 18]: 71 ± 3%; Emax (DAT; [19]): 77 ± 2%; D-Amphetamine Emax (% ± SD) [3, 20]: 96 ± 3%
CN(C)c1ncc(-c2nc(NC(c3ccccc3)c3ccccc3)c3ccccc3n2)cn1 [compound 12, N-Benzhydryl-2-(2-(dimethylamino)pyrimidin-5-yl)quinazolin-4-amine] |  |  |  |  |  |  |  | 7050 |  |  |  | 64 ± 10 | 1740 ± 1150 | 1.8 ± 0.4 | IC50 [1, 15]: 699 ± 164 nM; Emax [1, 16]: 48 ± 3%; IC50 [2, 17]: 174 ± 58 nM; Emax [2, 18]: 66 ± 4%; Emax (DAT; [19]): 71 ± 4%; D-Amphetamine Emax (% ± SD) [3, 20]: 98 ± 1%
CN(C)c1ccc(-c2nc(NCC(c3ccccc3)c3ccccc3)c3ccccc3n2)cc1 [SRI-29786] | 49 ± 27 | 7.1 ± 2.2 | 7 |  | 70 | 100 ± 3 | 1940 |  | 68 ± 7 | 143 ± 61 |  |  |  |  | 
CN(C)c1ccc(-c2nc(NCC(c3ccccc3)c3ccccc3)c3ccccc3n2)cn1 [compound 69, 2-(6-(Dimethylamino)Pyridin-3-yl)-N-(2,2-Diphenylethyl)Quinazolin-4-Amine] | 42 ± 12 | 7.3 ± 2.2 | 7 | 63 ± 3 | 63 | 83 ± 3 | 912 | 912 | 71 ± 6 | 147 ± 63 | 51 ± 2 | 71 ± 6 | 147 ± 63 | 1.2 ± 0.2 | D-Amphetamine Emax (% ± SD) [3, 21]: 99 ± 2%
CN(C)c1ncc(-c2nc(NCC(c3ccccc3)c3ccccc3)c3ccccc3n2)cn1 [compound 16, 2-(2-(Dimethylamino)pyrimidin-5-yl)-N-(2,2-diphenylethyl)quinazolin-4-amine] | 37 ± 18 | 20 ± 1 | 20 | 73 ± 1 | 73 | 76 ± 2 | 1820 | 1820 | 73 ± 4 | 181 ± 46 | 55 ± 5 | 73 ± 4 | 181 ± 46 | 1.7 ± 0.2 | D-Amphetamine Emax (% ± SD) ([3]; Emax of D-amphetamine for [^3H]MPP^+ release in presence of 500 nM test compound): 101 ± 3%
Cc1cc2nccn2cc1-c1nc(NCC(O)(c2ccccc2)c2ccccc2)c2ccccc2n1 [compound 152, 2-((2-(7-Methylimidazo[1,2-A]Pyridin-6-yl)Quinazolin-4-yl)Amino)-1,1-Diphenylethanol] | 3 ± 0.6 | 1.7 ± 0.1 | 2 | 69 ± 1 |  | 52 ± 8 | 46 |  | 69 ± 4 | 16 ± 5 |  |  |  |  | D-Amphetamine Emax (% ± SD) [3, 10]: 104 ± 4%
Cc1cc2nccn2cc1-c1nc(NCC(c2ccccc2)c2ccccc2)c2ccccc2n1 [compound 118, N-(2,2-Diphenylethyl)-2-(7-Methylimidazo[1,2-A]Pyridin-6-yl)Quinazolin-4-Amine] | 3.2 ± 0.9 | 0.5 ± 0.1 | 0.5 | 63 ± 2 | 63 | 79 ± 3 | 267 | 267 | 67 ± 3 | 21 ± 7 | 58 ± 3 | 67 ± 3 | 21 ± 7 |  | D-Amphetamine Emax (% ± SD) ([3]; Emax of D-amphetamine for [^3H]MPP^+ release in presence of 12.5 nM test compound): 104 ± 3%
CS(=O)(=O)Nc1ccc(-c2nc(NCC(c3ccccc3)c3ccccc3)c3ccccc3n2)cc1 [SRI-29577] | 20 ± 5 | 4.4 ± 0.8 | 4 |  | 70 | 65 ± 6 | -553 |  | 71 ± 2 | 90 ± 15 |  |  |  |  | 
c1ccc(C(CNc2nc(-c3ccc4[nH]ccc4c3)nc3ccccc23)c2ccccc2)cc1 [compound 17, N-(2,2-Diphenylethyl)-2-(1H-indol-5-yl)quinazolin-4-amine] | 68 ± 13 | 10 ± 1 | 10 | 74 ± 1 | 74 | 87 ± 4 | 456 | 456 | 70 ± 3 | 290 ± 52 | 54 ± 2 | 70 ± 3 | 290 ± 52 | 0.9 ± 0.2 | D-Amphetamine Emax (% ± SD) [3, 21]: 94 ± 2%
